Like-named read-outs stand apart in the source and are kept apart here.
Tests used:
[1] = system: Staphylococcus aureus MRSA 43484; assay: Murine superficial MRSA skin infection model, topical treatment; format: in vivo; settings: 2%, topical twice daily for 3 days, day 4, Balb/C mice
Experimental: This experiment is conducted to assess the effect of topical treatment of the compounds against MRSA. Compound S43 was evaluated for efficacy against Staphylococcus aureus MRSA 43484 in an murine skin infection model.
Treatment was performed twice daily for 3 days and sampling of skin biopsies was performed the day after last treatment. Treatment with Fucidic acid was included as a positive control and treatment with vehicle was included as a negative control.
48 Balb/C female mice—18-22 g—Taconic, Denmark, Staphylococcus aureus MRSA43484, Test compound A at 1 and 2% formulations, Test compound B at 2% formulation, Fucidin, 0.9% saline (sterile, SSI), 0.9% saline/Triton-x (sterile, SSI), Sterile water (SSI), 5% Horse Blood Agar plates (SSI), MRSA Brilliance agar plates, Nurofen® Junior (20 mg/ml, Novartis), Zoletil mix/Torbugesic (SSI/QC-BIO), Dermal curette—Miltex 335710.
Approximately 1 hour before inoculation, mice were treated orally with 45 μl nurofen (20 mg ibuprofen/ml corresponding to approximately […]) as pain relief. The mice were anaesthetized with 0.15 ml s.c. of Zoletil mix. The fur was removed from a 2×3-cm area on the back of each mouse by use of an electric shaver. Next, a razor was used to remove all the hair and hereafter the outer most layer of the skin was scraped off with a dermal curette to obtain a 1 cm^2 superficial skin lesion. 10 μl inoculum containing approximately 10^7 CFU was spread on the lesion. After the applied inoculum had dried, the mouse was placed in the cage and kept in a warming cabinet until fully awake.
Topical treatment of was initiated the day after inoculation, Day 1. Mice were treated twice daily (9 a.m and 3 p.m.) for three days. A volume of 50 μl was spread on the inoculated skin area.
Colony counts in the skin lesions were determined on day 1 (start of treatment) and day 4 (the day after completed treatment). The mice were sacrificed day 1 and 4 according to Table 1. The affected skin area was removed by a pair of scissors and tweezers, and collected in a tube for Dispomixer with 1 ml saline. The skin sample was homogenized in a Dispomixer. Each sample was serial diluted in saline/Triton-x and 20-μl spots were applied on MRSA Brillince agar plates. All agar plates were incubated 20-48 hrs at 35° C.

S. aureus CC398 = assay: MIC, serial dilution method (CLSI); format: cell-based, Staphylococcus aureus
Experimental: (§1) These inoculums were each in diluted 1:100 in Müller Hinton (MH) broth (Sigma, Copenhagen, Denmark). From the diluted inoculums 100 μl was transferred to each well in a 96-well plate and mixed with the compound to be MIC determined. The plate was incubated for 24 hours at 37° C. (without shaking). The MIC value was determined as the lowest concentration in which no bacterial growth could be visually detected. All MIC determinations were done in duplicates. […] Since all derivatives are new, no control strains (with reference MIC values) were available.

S. aureus USA300 = assay: MIC, serial dilution method (CLSI); format: cell-based, Staphylococcus aureus
Experimental: as §1

E. faecalis = assay: MIC, serial dilution method (CLSI); format: cell-based, Enterococcus faecalis
Experimental: as §1

E. coli APEC O2 = assay: MIC, serial dilution method (CLSI); format: cell-based, Escherichia coli
Experimental: as §1

[2] = system: Staphylococus pseudintermedius; assay: MIC, serial dilution method (CLSI); format: cell-based, Staphylococcus pseudintermedius
Experimental: as §1

E. faecium = assay: MIC, serial dilution method (CLSI); format: cell-based, Enterococcus faecium
Experimental: as §1

Bacillus cereus = assay: MIC, serial dilution method (CLSI); format: cell-based
Experimental: as §1

Listeria monocytogenes = assay: MIC, serial dilution method (CLSI); format: cell-based
Experimental: as §1

Salmonella enteritidis = assay: MIC, serial dilution method (CLSI); format: cell-based
Experimental: as §1

Streptococcus equi = assay: MIC, serial dilution method (CLSI); format: cell-based
Experimental: as §1

[3] = Staphylococcus aureus, MRSA, 24 h, read-out: MIC
[4] = Staphylococcus aureus, USA300, 24 h, read-out: MIC
[5] = Enterococcus faecalis, 24 h, read-out: MIC
[6] = Escherichia coli, APECO2, 24 h, read-out: MIC
[7] = Staphylococcus pseudintermedius, 24 h, read-out: MIC
[8] = Enterococcus faecium, 24 h, read-out: MIC
[9] = Salmonella enterica, ENTERITIDIS, 24 h, read-out: MIC
[10] = S. aureus CC398 (MRSA strain), MH broth, 24 hours at 37° C., set to 256 if growth at […]
[11] = S. aureus USA300, MH broth, 24 hours at 37° C., set to 256 if growth at […]
[12] = E. faecalis, MH broth, 24 hours at 37° C., set to 256 if growth at […]
[13] = E. coli APEC O2, MH broth, 24 hours at 37° C., set to 256 if growth at […]
[14] = Staphylococus pseudintermedius, MH broth, 24 hours at 37° C., set to 256 if growth at […]
[15] = E. faecium, MH broth, 24 hours at 37° C., set to 256 if growth at […]
[16] = MH broth, 24 hours at 37° C., set to 256 if growth at […]
[17] = Salmonella enteritidis, MH broth, 24 hours at 37° C., set to 256 if growth at […]

| MIC (S. aureus CC398; [3]) [µg/mL] | MIC (S. aureus USA300; [4]) [µg/mL] | MIC (E. faecalis; [5]) [µg/mL] | MIC (E. coli APEC O2; [6]) [µg/mL] | MIC [2, 7] [µg/mL] | MIC (E. faecium; [8]) [µg/mL] | MIC (Bacillus cereus; 24 h, read-out: MIC) [µg/mL] | MIC (Listeria monocytogenes; 24 h, read-out: MIC) [µg/mL] | MIC (Salmonella enteritidis; [9]) [µg/mL] | MIC (Streptococcus equi; 24 h, read-out: MIC) [µg/mL] | SMILES | other results |
| --- | --- | --- | --- | --- | --- | --- | --- | --- | --- | --- | --- |
| 256 | 256 | 256 | 256 | 256 | 256 | 128 | 256 | 256 | 256 | C[N+](C)(C)CC/C=C1/c2ccccc2Sc2ccc(Cl)cc21.[I-] [Compound S35, (Z)-3-(2-chloro-9H-thioxanthen-9-ylidene)-N,N,N-trimethylpropan-1-aminium iodide] | – |
| 32 | 32 | 32 | 64 | 32 | 32 | 64 | 32 | 128 | 256 | CN(C)CC/C=C1/c2ccccc2Sc2ccc(Cl)cc21.Cl [Compound S34, (Z)-3-(2-chloro-9H-thioxanthen-9-ylidene)-N,N-dimethylpropan-1-amine hydrochloride, reference compound] | – |
| 16 | 16 | 64 | 64 | 8 | 64 | 16 | 32 | 128 | 8 | CC(C)CC[N+](C)(C)C(C)CN1c2ccccc2Sc2ccccc21.[Br-] (stereo not drawn) [Compound S16, N-(1-(10H-phenothiazin-10-yl)propan-2-yl)-N,N,3-trimethylbutan-1-aminium bromide] | – |
| 4 | 4 | 16 | 256 | 4 | 16 | 64 | 32 | 128 | 4 | C=CC[N+]1(C)CCCCC1CCN1c2ccccc2Sc2ccc(SC)cc21.[Br-] (stereo not drawn) [Compound S42, 1-allyl-1-methyl-2-(2-(2-(methylthio)-10H-phenothiazin-10-yl)ethyl)piperidin-1-ium bromide] | – |
| 16 | 16 | 32 | 128 | 8 | 32 | 64 | 32 | 128 | 8 | CC(C)CC[N+](C)(C)CCCN1c2ccccc2Sc2ccc(Cl)cc21.[Br-] [Compound S5, N-(3-(2-chloro-10H-phenothiazin-10-yl)propyl)-N,N,3-trimethylbutan-1-aminium bromide] | – |

More lines, now with the values behind:

| SMILES | MIC (S. aureus CC398; [3]) [µg/mL] | MIC (S. aureus USA300; [4]) [µg/mL] | MIC (E. faecalis; [5]) [µg/mL] | MIC (E. coli APEC O2; [6]) [µg/mL] | MIC [2, 7] [µg/mL] | MIC (E. faecium; [8]) [µg/mL] | MIC (Bacillus cereus; 24 h, read-out: MIC) [µg/mL] | MIC (Listeria monocytogenes; 24 h, read-out: MIC) [µg/mL] | MIC (Salmonella enteritidis; [9]) [µg/mL] | MIC (Streptococcus equi; 24 h, read-out: MIC) [µg/mL] | other results |
| --- | --- | --- | --- | --- | --- | --- | --- | --- | --- | --- | --- |
| CC(=O)O[C@H]1C[C@@]2(C)[C@@H](C[C@@H](O)[C@H]3[C@@]4(C)CC[C@@H](O)[C@@H](C)[C@@H]4CC[C@@]32C)/C1=C(\CCC=C(C)C)C(=O)O [fucidic acid, reference compound] | – | – | – | – | – | – | – | – | – | – | reduction of the CFU levels compared to the vehicle control [1]: 1.5 logo |
| CCCCCCCCCCCC[N+]1(C)CCCCC1CCN1c2ccccc2Sc2ccc(SC)cc21.[Br-] (stereo not drawn) [Compound S29, 1-dodecyl-1-methyl-2-(2-(2-(methylthio)-10H-phenothiazin-10-yl)ethyl)piperidin-1-ium bromide] | 2 | 4 | 4 | 64 | 2 | 2 | 2 | 2 | 64 | 2 | – |
| COC(=O)CCCCC[N+](C)(C)CCC=C1c2ccccc2Sc2ccc(Cl)cc21 [Chlorprothixene 6-Methoxy-6-oxo-1-hexyl] | – | – | – | – | – | – | – | – | – | – | MIC (S. aureus CC398; [10]): 8 µg/mL; MIC (S. aureus USA300; [11]): 8 µg/mL; MIC (E. faecalis; [12]): 128 µg/mL; MIC (E. coli APEC O2; [13]): 128 µg/mL; MIC [2, 14]: 8 µg/mL; MIC (E. faecium; [15]): 64 µg/mL; MIC (Bacillus cereus; [16]): 8 µg/mL; MIC (Listeria monocytogenes; [16]): 8 µg/mL; MIC (Salmonella enteritidis; [17]): 128 µg/mL; MIC (Streptococcus equi; [16]): 8 µg/mL |
| CSc1ccc2c(c1)N(CCC1CCCC[N+]1(C)C(C)C)c1ccccc1S2.[Br-] (stereo not drawn) [Compound S26, 1-isopropyl-1-methyl-2-(2-(2-(methylthio)-10H-phenothiazin-10-yl)ethyl)piperidin-1-ium bromide] | 8 | 8 | 32 | 128 | 8 | 16 | 8 | 8 | 128 | 8 | – |
| C=CC[N+](C)(C)C(C)CN1c2ccccc2Sc2ccccc21.[Br-] (stereo not drawn) [Compound S41, N-(1-(10H-phenothiazin-10-yl)propan-2-yl)-N,N-dimethylprop-2-en-1-aminium bromide] | 64 | 64 | 256 | 256 | 64 | 128 | 256 | 256 | 256 | 32 | – |
| CC(C)[N+](C)(C)CCCN1c2ccccc2Sc2ccc(Cl)cc21.[Br-] [Compound S4, 3-(2-chloro-10H-phenothiazin-10-yl)-N-isopropyl-N,N-dimethylpropan-1-aminium bromide] | 16 | 16 | 128 | 128 | 8 | 64 | 32 | 32 | 128 | 32 | – |
| CCOC(=O)CC[N+]1(C)CCCCC1CCN1c2ccccc2Sc2ccc(SC)cc21 (stereo not drawn) [Thioridazine 3-Ethoxy-3-oxo-1-propyl] | – | – | – | – | – | – | – | – | – | – | MIC (S. aureus CC398; [10]): 32 µg/mL; MIC (S. aureus USA300; [11]): 32 µg/mL; MIC (E. faecalis; [12]): 32 µg/mL; MIC (E. coli APEC O2; [13]): 256 µg/mL; MIC [2, 14]: 16 µg/mL; MIC (E. faecium; [15]): 32 µg/mL; MIC (Bacillus cereus; [16]): 4 µg/mL; MIC (Listeria monocytogenes; [16]): 4 µg/mL; MIC (Salmonella enteritidis; [17]): 128 µg/mL; MIC (Streptococcus equi; [16]): 8 µg/mL |
| CC(CN1c2ccccc2Sc2ccccc21)N(C)C.Cl (stereo not drawn) [Compound S12, N,N-dimethyl-1-(10H-phenothiazin-10-yl)propan-2-amine hydrochloride, reference compound] | 128 | 128 | 128 | 128 | 64 | 256 | 256 | 128 | 256 | 64 | – |
| C[N+](C)(CCCN1c2ccccc2Sc2ccc(Cl)cc21)Cc1ccccc1 [Chlorpromazine Benzyl] | – | – | – | – | – | – | – | – | – | – | MIC (S. aureus CC398; [10]): 4 µg/mL; MIC (S. aureus USA300; [11]): 8 µg/mL; MIC (E. faecalis; [12]): 16 µg/mL; MIC (E. coli APEC O2; [13]): 64 µg/mL; MIC [2, 14]: 2 µg/mL; MIC (E. faecium; [15]): 16 µg/mL; MIC (Bacillus cereus; [16]): 4 µg/mL; MIC (Listeria monocytogenes; [16]): 8 µg/mL; MIC (Salmonella enteritidis; [17]): 64 µg/mL; MIC (Streptococcus equi; [16]): 2 µg/mL |
| CSc1ccc2c(c1)N(CCC1CCCC[N+]1(C)C)c1ccccc1S2.[I-] (stereo not drawn) [Compound S24, 1,1-dimethyl-2-(2-(2-(methylthio)-10H-phenothiazin-10-yl)ethyl)piperidin-1-ium iodide] | 16 | 16 | 128 | 256 | 8 | 64 | 16 | 32 | 128 | 8 | – |

Source: patent US20220313656A1, “NEW CLASS OF ANTIBIOTICS HAVING LOW MIC-VALUES TOWARDS DIFFERENT STRAINS OF BACTERIA” (priority 2019, published 2022)
